The record followed here is patent publication US20260365611A1, “CRYSTALLINE SALTS OF 2-PHENYL-2-AMINOCYCLOHEXAN-1-ONE DERIVATIVES” (priority 2023, published 2026).

Counter-ions that a name gives are not always drawn. Like-named read-outs stand apart in the source and are kept apart here. Where only a bound is given, the exact number is not on record here.

Type in all cases: physicochemical
Series [1] can be described thus: Thermo-Gravimetric Analysis (TGA). On the procedure:
In the examples below, the solids are analyzed by XRPD to determine if they are crystalline and if so, by DSC to determine melting point and TGA to determine if hydrated/solvated.

Series [2] is described as follows: Sublimation on heating. The following applies: heated up to 300 °C. As for the experimental part: The Form 1 polymorph was heated up to 300 °C. […] Polymorph screening of the deuterated 1R HCl salt of Example 2 (Form 1).
A short description of series [3]: Approximate solubility in 20 solvents. The following applies: for solubility: RT. On the procedure: The approximate solubility of the crystalline hydrochloride salt product of Example 1 (1R HCl Form 1) was estimated in 20 solvents as follows: Approximately 10 mg of the product of Example 1 is placed into a 4.0 mL vial, to which 25 μL of solvent at RT is added, and then the vial with its contents is shaken and stirred. If no clear solution is obtained, another 25 μL of solvent is added to the vial and then the vial with its contents is shaken and stirred again. This process is repeated until 4.0 mL solvent is added, and then the contents of the vial are stirred overnight.

A short description of series [4]: Dynamic Vapor Sorption (DVS). On the procedure: 1R HCl Form 1 was analyzed by DVS (0-90-O-90-0% RH at 25 °C). The DVS behavior is shown in FIGS. 5(a) and (b), wherein 1 plots cycle 1 desorption, 2 plots cycle 2 sorption, 3 plots cycle 2 desorption, 4 plots cycle 1 sorption, 5 plots target % P/Po and 6 plots dm dry line, wherein P is the vapor pressure, Po is the saturation vapor pressure and P/Po is equivalent to % relative humidity for water.

A short description of series [5]: Crystal form conversion on drying. As for the experimental part: About 0.25 mL of ethyl acetate was added to a glass vial containing about 40 mg of freebase (R)-2-(4-fluorophenyl)-2-(methylamino)cyclohexan-1-one. One molar equivalent of citric acid was added to the vial, and the contents were stirred at room temperature.
Setting [6] is: drying in a vacuum oven at room temperature.

As for `CN[C@@]1(c2ccc(F)cc2)CCCCC1=O` [Mal-2, (R)-2-(4-fluorophenyl)-2-(methylamino)cyclohexan-1-one Mal-2], the TGA weight loss result in series [1] (by 100 °C) was “about 0.11%”.
`CN[C@@]1(c2ccc(F)cc2)CCCCC1=O` [Tar-3, (R)-2-(4-fluorophenyl)-2-(methylamino)cyclohexan-1-one Tar-3]: the TGA weight loss result in series [1] (room temperature to 125 °C) is “about 9.95%”.
As for `CN[C@@]1(c2ccc(F)cc2)CCCCC1=O` [Mali-1, (R)-2-(4-fluorophenyl)-2-(methylamino)cyclohexan-1-one-L-Mali-1], in series [1] (room temperature to 100 °C), the TGA weight loss result is reported as “about 0.70%”.
For the molecule `CN[C@@]1(c2ccc(F)cc2)CCCCC1=O` [1R HCl Form 1, (R)-2-(4-fluorophenyl)-2-(methylamino)cyclohexan-1-one hydrochloride Form 1], in series [2], the Sublimation result was “can be sublimed from a solid phase to gas phase without passing through the liquid phase”. Also, in series [2] (XRPD), the “Form of material recovered from sublimation” value is recorded as “same XRPD pattern as 1R HCl Form 1”. Further, the “Hydrate/solvate state from TGA” value in series [1] (heated from room temperature to 100 °C) is “not a hydrate or solvate”. Moreover, the TGA weight loss in series [1] (room temperature to 100 °C) turned out to be 0.34%. Also, the solubility in series [3] (1,4-dioxane, organic solvent or mixture, 1,4-Dioxane, read-out: Solubility) is 2.9 to 3.3 mg/mL; in series [3] (2-methf, organic solvent or mixture, 2-MeTHF, read-out: Solubility), below 2.6 mg/mL; in series [3] (DCM), 194 to 388 mg/mL; in series [3] (DMF), 192 to 384 mg/mL; in series [3] (DMSO), above 395 mg/mL; in series [3] (EtOH) it was 215 to 431 mg/mL. In addition, the solubility in series [3] (MeOH) is above 486 mg/mL; in series [3] (Water), above 464 mg/mL; in series [3] (acetone, organic solvent or mixture, Acetone, read-out: Solubility), 8.8 to 9.7 mg/mL; in series [3] (acn, organic solvent or mixture, ACN, read-out: Solubility) it was 32 to 38 mg/mL; in series [3] (dcm, organic solvent or mixture, DCM, read-out: Solubility) it was above 300 mg/mL; in series [3] (dmf, organic solvent or mixture, DMF, read-out: Solubility), above 300 mg/mL. Also, the solubility is above 300 mg/mL in series [3] (dmso, organic solvent or mixture, DMSO, read-out: Solubility); below 2.6 mg/mL in series [3] (etoac, organic solvent or mixture, EtOAc, read-out: Solubility); above 300 mg/mL in series [3] (etoh, organic solvent or mixture, EtOH, read-out: Solubility); below 2.7 mg/mL in series [3] (heptane, organic solvent or mixture, Heptane, read-out: Solubility); 50 to 67 mg/mL in series [3] (ipa, organic solvent or mixture, IPA, read-out: Solubility); below 2.4 mg/mL in series [3] (ipac, read-out: Solubility). The solubility was 3.1 to 3.7 mg/mL in series [3] (mek, read-out: Solubility); above 300 mg/mL in series [3] (meoh, organic solvent or mixture, MeOH, read-out: Solubility); below 2.7 mg/mL in series [3] (mibk, read-out: Solubility); below 2.5 mg/mL in series [3] (mtbe, organic solvent or mixture, MTBE, read-out: Solubility); 51 to 69 mg/mL in series [3] (npa, read-out: Solubility); below 3 mg/mL in series [3] (thf, organic solvent or mixture, THF, read-out: Solubility). The solubility in series [3] (toluene, organic solvent or mixture, Toluene, read-out: Solubility) was below 2.7 mg/mL; in series [3] (water, read-out: Solubility), above 300 mg/mL. In addition, the “Solubility (in words)” value in series [3] (esters, ketones, ethers, and alkanes) is “Limited or no solubility”. Also, the “DVS moisture sorption behavior” value in series [4] (25 °C, 0-90-0-90-0% RH) is given as “absorbs significant moisture above ~80% RH but readily releases the moisture at lower humidity”. Further, in series [4] (post-DVS, kept at 0% RH for 3 days), the “Crystal form of post-DVS sample” value is on record as “same crystal form as the starting solids”.
Regarding `CN[C@@]1(c2ccc(F)cc2)CCCCC1=O` [Tar-5, (R)-2-(4-fluorophenyl)-2-(methylamino)cyclohexan-1-one Tar-5], the TGA weight loss entry in series [1] (by 100 °C) is recorded as “about 0.26%”.
For the molecule `CN[C@@]1(c2ccc(F)cc2)CCCCC1=O` [Cit-1, (R)-2-(4-fluorophenyl)-2-(methylamino)cyclohexan-1-one Cit-1], the Crystal form conversion entry in series [5] (setting [6]) is on record as “transitioned to a different XRPD pattern”.
On the same count and under the same terms, in the case of `CN[C@@]1(c2ccc(F)cc2)CCCCC1=O` [Tar-2, (R)-2-(4-fluorophenyl)-2-(methylamino)cyclohexan-1-one Tar-2] it was “transitioned into Tar-5”.
As to `CN[C@@]1(c2ccc(F)cc2)CCCCC1=O` [Mal-1, (R)-2-(4-fluorophenyl)-2-(methylamino)cyclohexan-1-one Mal-1], the TGA weight loss entry in series [1] (by 100 °C) is reported as “about 0.16%”.
Consider `CN[C@@]1(c2ccc(F)cc2)CCCCC1=O` [Sulfate-2, (R)-2-(4-fluorophenyl)-2-(methylamino)cyclohexan-1-one Sulfate-2], for which, in series [5] (wet cake dried at room temperature), the Crystal form conversion entry is reported as “a different XRPD diffractogram was obtained”.
In the case of `CN[C@@]1(c2ccc(F)cc2)CCCCC1=O` [Phos-1, (R)-2-(4-fluorophenyl)-2-(methylamino)cyclohexan-1-one Phos-1], the TGA weight loss result in series [1] (by 100 °C) is “about 0.11%”.
On to `CN[C@@]1(c2ccc(F)cc2)CCCCC1=O` [Hip-1, (R)-2-(4-fluorophenyl)-2-(methylamino)cyclohexan-1-one Hip-1], for which the TGA weight loss result in series [1] (room temperature to 100 °C) is “about 0.69%”.
Take `CN[C@@]1(c2ccc(F)cc2)CCCCC1=O` [Tar-4, (R)-2-(4-fluorophenyl)-2-(methylamino)cyclohexan-1-one Tar-4]: in series [5] (setting [6]), the Crystal form conversion result is given as “converted into Tar-6”.
Regarding `CN[C@@]1(c2ccc(F)cc2)CCCCC1=O` [Sulfate-1, (R)-2-(4-fluorophenyl)-2-(methylamino)cyclohexan-1-one Sulfate-1], the TGA weight loss entry in series [1] (by 100 °C, listed as sulfate salt) is reported as “about 0.08%”.
Regarding `CN[C@@]1(c2ccc(F)cc2)CCCCC1=O` [Tar-6, (R)-2-(4-fluorophenyl)-2-(methylamino)cyclohexan-1-one Tar-6], the TGA weight loss result in series [1] (by 100 °C) was “about 10.67%”.
Consider `CN[C@@]1(c2ccc(F)cc2)CCCCC1=O` [Glyc-1, (R)-2-(4-fluorophenyl)-2-(methylamino)cyclohexan-1-one Glyc-1], for which the TGA weight loss entry in series [1] (room temperature to 100 °C) was “about 1.89%”.
`CN[C@@]1(c2ccc(F)cc2)CCCCC1=O` [Phos-2, (R)-2-(4-fluorophenyl)-2-(methylamino)cyclohexan-1-one Phos-2]: in series [1] (by 100 °C), the TGA weight loss result was “about 0.90%”.
Consider `CN[C@@]1(c2ccc(F)cc2)CCCCC1=O` [Sulfate-3, (R)-2-(4-fluorophenyl)-2-(methylamino)cyclohexan-1-one Sulfate-3], for which the Crystal form conversion result in series [5] (further dried with heating at 40 °C) is on record as “a different XRPD diffractogram was obtained”.
As to `CN[C@@]1(c2ccc(F)cc2)CCCCC1=O` [Cit-2, (R)-2-(4-fluorophenyl)-2-(methylamino)cyclohexan-1-one Cit-2], the TGA weight loss result in series [1] (room temperature to 100 °C) is recorded as “about 1.33%”.
As to `CN[C@@]1(c2ccc(F)cc2)CCCCC1=O` [Fum-1, (R)-2-(4-fluorophenyl)-2-(methylamino)cyclohexan-1-one Fum-1], the TGA weight loss entry in series [1] (by 100 °C) is reported as “about 0.66%”.
The same measure, in the same setting: next, `CN[C@@]1(c2ccc(F)cc2)CCCCC1=O` [MSA-1, (R)-2-(4-fluorophenyl)-2-(methylamino)cyclohexan-1-one MSA-1]: “about 0.01%”.
